In general, Emax refers to the greatest response seen or fitted, relative to the assay's reference.

In one test the target is human OX2R (Homo sapiens (Human), UniProt O43614). As to the kind of experiment: IPOne (IP-1) assay in CHO cells expressing human OX2R. The class given is cell-based. As to conditions: CHO. The procedure, abridged: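 CHO cells stably expressing human OX2R were stimulated with compound (10-point ½-log dilutions) for 2 h at 37 °C. IP-1 accumulation was read by HTRF (IP-One, 665/620 nm). EC50 from a four-parameter fit; % effect relative to 1 μM reference agonist control.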
Sequence of human OX2R (O43614 whole entry): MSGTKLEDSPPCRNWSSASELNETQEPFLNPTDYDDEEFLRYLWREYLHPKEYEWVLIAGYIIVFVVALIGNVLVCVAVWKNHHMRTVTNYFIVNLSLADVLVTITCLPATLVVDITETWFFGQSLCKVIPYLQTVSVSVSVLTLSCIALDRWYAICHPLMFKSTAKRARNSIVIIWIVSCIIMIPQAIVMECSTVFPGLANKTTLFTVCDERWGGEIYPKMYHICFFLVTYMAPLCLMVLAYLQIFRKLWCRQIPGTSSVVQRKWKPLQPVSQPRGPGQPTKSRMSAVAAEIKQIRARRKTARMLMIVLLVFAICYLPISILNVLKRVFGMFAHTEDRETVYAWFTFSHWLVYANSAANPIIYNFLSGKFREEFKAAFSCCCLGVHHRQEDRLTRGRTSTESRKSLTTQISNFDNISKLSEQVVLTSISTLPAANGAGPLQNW
In the case of `C[C@@H]1C[C@H](NS(C)(=O)=O)[C@H](CO[C@H]2CC[C@@]3(c4ncc(F)cn4)C[C@H]3C2)N1C(=O)OCC1CC(F)C1` (stereo partly drawn) [Example 49, (3-fluorocyclobutyl)methyl (2R,3S,5R)-2-((((1S,3S,6R)-6-(5-fluoropyrimidin-2-yl)bicyclo[4.1.0]heptan-3-yl)oxy)methyl)-5-methyl-3-(methylsulfonamido)pyrrolidine-1-carboxylate], the Emax turned out to be 103%.

The test is the same for the next values; noted with them: CHO cells expressing human OX2R; IP-One detection; 2 hours incubation; EC50 = inflection point of four parameter logistic fit; read-out: hOX2R_IP_IC50.
`CCS(=O)(=O)N[C@H]1C[C@@H](C(F)F)N(C(=O)OC(C)C)[C@H]1CO[C@H]1CC[C@@]2(c3ncc(F)cn3)C[C@H]2C1` (single isomer, unassigned) [Example 118]: the IC50 stood at 0.99 nM.
Consider `CC(C)OC(=O)N1[C@H](C)C[C@H](NS(=O)(=O)CF)[C@@H]1CO[C@H]1CC[C@@]2(c3ncc(F)cn3)C[C@H]2C1` (single isomer, unassigned) [Example 100], for which the IC50 amounted to 1 nM.
Still for that read-out and setting: in the case of `COC(=O)N1[C@H](C)C[C@H](NS(=O)(=O)N(C)C)[C@@H]1COC1CCC2(c3ncc(F)cn3)CC2C1` (stereo partly drawn) [Example 169, methyl (2R,3S,5R)-3-((N,N-dimethylsulfamoyl)amino)-2-(((6-(5-fluoropyrimidin-2-yl)bicyclo[4.1.0]heptan-3-yl)oxy)methyl)-5-methylpyrrolidine-1-carboxylate] it was 1.5 nM.
The same measure, in the same setting: in the case of `COC(=O)N1[C@H](C)C[C@H](NS(C)(=O)=O)[C@@H]1COC1CCC2(c3ncccn3)CC2C1` (single isomer, unassigned) [Example 16] it was 16.4 nM; in that of `CC(C)OC(=O)N1[C@H](C)C[C@H](NS(C)(=O)=O)[C@@H]1CO[C@H]1CC[C@@]2(c3ncc(Cl)cn3)C[C@H]2C1` (single isomer, unassigned) [Example 151], 4.4 nM.

The test is the same for the next values; noted with them: CHO, percentage of mean max effect of a reference compound at 1 uM (100% activity by comparison to Orexin A), human OX2R; read-out: Emax (%).
As for `COC(=O)N1[C@@H]2CCC[C@@H]2[C@H](NS(=O)(=O)CF)[C@@H]1COC1CCC2(c3ncc(F)cn3)CC2C1` (stereo partly drawn) [Example 130, methyl (2R,3S,3aS,6aR)-3-((fluoromethyl)sulfonamido)-2-(((6-(5-fluoropyrimidin-2-yl)bicyclo[4.1.0]heptan-3-yl)oxy)methyl)hexahydrocyclopenta[b]pyrrole-1(2H)-carboxylate], the Emax came to 101%.
Same read-out and setting: the figure for `CC(C)OC(=O)N1[C@H](C(F)F)C[C@H](NS(C)(=O)=O)[C@@H]1CO[C@H]1CC[C@@]2(c3ncc(F)cn3)C[C@H]2C1` [Example 119, isopropyl (2R,3S,5S)-5-(difluoromethyl)-2-((((1S,3S,6R)-6-(5-fluoropyrimidin-2-yl)bicyclo[4.1.0]heptan-3-yl)oxy)methyl)-3-(methylsulfonamido)pyrrolidine-1-carboxylate] is 100%; for `CCS(=O)(=O)N[C@H]1C[C@@H](C(F)F)N(C(=O)OC(C)C)[C@H]1CO[C@H]1CC[C@@]2(c3ncc(F)cn3)C[C@H]2C1` (single isomer, unassigned) [Example 118] it is 100%.
The same measure, in the same setting: in the case of `COC(=O)N1[C@H](C)C[C@H](NS(C)(=O)=O)[C@@H]1COC1CCC2(c3ncc(OC(F)F)c(C)n3)CC2C1` (stereo partly drawn) [Example 75, methyl (2R,3S,5R)-2-(((6-(5-(difluoromethoxy)-4-methylpyrimidin-2-yl)bicyclo[4.1.0]heptan-3-yl)oxy)methyl)-5-methyl-3-(methylsulfonamido)pyrrolidine-1-carboxylate] it was 89.5%.
Same read-out and setting: the figure for `CCCS(=O)(=O)N[C@H]1C[C@@H](C)N(C(=O)OC)[C@H]1CO[C@H]1CC[C@@]2(c3ncc(F)cn3)C[C@H]2C1` [Example 33, methyl (2R,3S,5R)-2-((((1S,3S,6R)-6-(5-fluoropyrimidin-2-yl)bicyclo[4.1.0]heptan-3-yl)oxy)methyl)-5-methyl-3-(propylsulfonamido)pyrrolidine-1-carboxylate] is 105%; for `COC(=O)N1[C@H](C)C[C@H](NS(C)(=O)=O)[C@@H]1CO[C@@H]1CC[C@]2(c3ncc(Cl)cn3)C[C@@H]2C1` [Example 141, methyl (2R,3S,5R)-2-((((1R,3R,6S)-6-(5-chloropyrimidin-2-yl)bicyclo[4.1.0]heptan-3-yl)oxy)methyl)-5-methyl-3-(methylsulfonamido)pyrrolidine-1-carboxylate] it is 98.7%.
In the case of `CC(C)OC(=O)N1[C@H](C)C[C@H](NS(=O)(=O)CF)[C@@H]1CO[C@H]1CC[C@@]2(c3ncc(F)cn3)C[C@H]2C1` (single isomer, unassigned) [Example 100], the Emax came out at 100%.
The same measure, in the same setting: the figure for `C[C@@H]1C[C@H](NS(C)(=O)=O)[C@H](CO[C@H]2CC[C@@]3(c4ncc(F)cn4)C[C@H]3C2)N1C(=O)OCCF` [Example 62, 2-Fluoroethyl (2R,3S,5R)-2-((((1S,3S,6R)-6-(5-fluoropyrimidin-2-yl)bicyclo[4.1.0]heptan-3-yl)oxy)methyl)-5-methyl-3-(methylsulfonamido)pyrrolidine-1-carboxylate] is 100%.
As for `COC(=O)N1[C@H](C)C[C@H](NS(C)(=O)=O)[C@@H]1COC1CCC2(c3ncc(F)c(C(F)F)n3)CC2C1` (stereo partly drawn) [Example 73, methyl (2R,3S,5R)-2-(((6-(4-(difluoromethyl)-5-fluoropyrimidin-2-yl)bicyclo[4.1.0]heptan-3-yl)oxy)methyl)-5-methyl-3-(methylsulfonamido)pyrrolidine-1-carboxylate], the Emax came to 90.7%.
In the case of `CCS(=O)(=O)N[C@H]1C[C@@H](C)N(C(=O)OC)[C@H]1CO[C@@H]1CC[C@]2(c3ncc(F)cn3)C[C@@H]2C1` [Example 47, methyl (2R,3S,5R)-3-(ethylsulfonamido)-2-((((1R,3R,6S)-6-(5-fluoropyrimidin-2-yl)bicyclo[4.1.0]heptan-3-yl)oxy)methyl)-5-methylpyrrolidine-1-carboxylate], the maximal response (Emax) is 98.4%.
The same measure, in the same setting: in the case of `CCC(F)(F)COC(=O)N1[C@H](C)C[C@H](NS(C)(=O)=O)[C@@H]1CO[C@H]1CC[C@@]2(c3ncc(F)cn3)C[C@H]2C1` [Example 60, 2,2-difluorobutyl (2R,3S,5R)-2-((((1S,3S,6R)-6-(5-fluoropyrimidin-2-yl)bicyclo[4.1.0]heptan-3-yl)oxy)methyl)-5-methyl-3-(methylsulfonamido)pyrrolidine-1-carboxylate] it was 104%; in that of `CCS(=O)(=O)N[C@H]1CCCN(C(=O)OC(C)C)[C@H]1COC1CC[C@@]2(c3ncc(F)cn3)CC2C1` (stereo partly drawn) [Example 126, isopropyl (2R,3S)-3-(ethylsulfonamido)-2-(((6-(5-fluoropyrimidin-2-yl)bicyclo[4.1.0]heptan-3-yl)oxy)methyl)piperidine-1-carboxylate], 104%; in that of `CCS(=O)(=O)N[C@H]1C[C@@H](C(F)F)N(C(=O)OC)[C@H]1COC1CCC2(c3ncc(F)cn3)CC2C1` (stereo partly drawn) [Example 117, methyl (2R,3S,5S)-5-(difluoromethyl)-3-(ethylsulfonamido)-2-(((6-(5-fluoropyrimidin-2-yl)bicyclo[4.1.0]heptan-3-yl)oxy)methyl)pyrrolidine-1-carboxylate], 101%.
The same measure, in the same setting: in the case of `CC(C)OC(=O)N1[C@H](C)C[C@H](NS(=O)(=O)C(F)F)[C@@H]1COC1CCC2(c3ncc(Cl)cn3)CC2C1` (stereo partly drawn) [Example 82, isopropyl (2R,3S,5R)-2-(((6-(5-chloropyrimidin-2-yl)bicyclo[4.1.0]heptan-3-yl)oxy)methyl)-3-((difluoromethyl)sulfonamido)-5-methylpyrrolidine-1-carboxylate] it was 102%; in that of `COC(=O)N1[C@H](C)C[C@H](NS(=O)(=O)N(C)C)[C@@H]1COC1CCC2(c3ncccn3)C(C1)C2(F)F` (stereo partly drawn) [Example 7, methyl (2R,3S,5R)-2-(((7,7-difluoro-6-(pyrimidin-2-yl)bicyclo[4.1.0]heptan-3-yl)oxy)methyl)-3-((N,N-dimethylsulfamoyl)amino)-5-methylpyrrolidine-1-carboxylate], 39.4%.
For the compound `CC(C)OC(=O)N1[C@H](C)C[C@H](NS(C)(=O)=O)[C@@H]1CO[C@H]1CC[C@@]2(c3ncc(Cl)cn3)C[C@H]2C1` (single isomer, unassigned) [Example 151], the Emax turned out to be 101%.
For `COC(=O)N1[C@H](C)C[C@H](NS(=O)(=O)C(F)F)[C@@H]1CO[C@@H]1CC[C@]2(c3ncccn3)C[C@@H]2C1` [Example 69, methyl (2R,3S,5R)-3-((difluoromethyl)sulfonamido)-5-methyl-2-((((1R,3R,6S)-6-(pyrimidin-2-yl)bicyclo[4.1.0]heptan-3-yl)oxy)methyl)pyrrolidine-1-carboxylate], the Emax was found to be 101%.
For `COC(=O)N1[C@H](C)C[C@H](NS(=O)(=O)CF)[C@@H]1COC1CCC2(c3ncc(F)c(OC)n3)CC2C1` (stereo partly drawn) [Example 85, methyl (2R,3S,5R)-2-(((6-(5-fluoro-4-methoxypyrimidin-2-yl)bicyclo[4.1.0]heptan-3-yl)oxy)methyl)-3-((fluoromethyl)sulfonamido)-5-methylpyrrolidine-1-carboxylate], the Emax was found to be 97.1%.
On the same count and under the same terms, the figure for `CC(C)OC(=O)N1CCC[C@H](NS(=O)(=O)C2CC2)[C@@H]1COC1CCC2(c3ncc(F)cn3)CC2C1` (stereo partly drawn) [Example 122, isopropyl (2R,3S)-3-(cyclopropanesulfonamido)-2-(((6-(5-fluoropyrimidin-2-yl)bicyclo[4.1.0]heptan-3-yl)oxy)methyl)piperidine-1-carboxylate] is 104%; for `CC(C)OC(=O)N1[C@H](C)C[C@H](NS(C)(=O)=O)[C@@H]1COC1CCC2(c3ncc(Cl)cn3)CC2C1` (stereo partly drawn) [Example 154, isopropyl (2R,3S,5R)-2-(((6-(5-chloropyrimidin-2-yl)bicyclo[4.1.0]heptan-3-yl)oxy)methyl)-5-methyl-3-(methylsulfonamido)pyrrolidine-1-carboxylate] it is 101%.
The same measure, in the same setting: in the case of `COC(=O)N1[C@@H]2CCC[C@@H]2[C@H](NS(C)(=O)=O)[C@@H]1COC1CCC2(c3ncccn3)CC2C1` (stereo partly drawn) [Example 175, methyl (2R,3S,3aS,6aR)-3-(methylsulfonamido)-2-(((6-(pyrimidin-2-yl)bicyclo[4.1.0]heptan-3-yl)oxy)methyl)hexahydrocyclopenta[b]pyrrole-1(2H)-carboxylate] it was 99.9%; in that of `C[C@@H]1C[C@H](NS(C)(=O)=O)[C@H](CO[C@H]2CC[C@@]3(c4ncc(F)cn4)C[C@H]3C2)N1C(=O)OCCC(F)F` [Example 52, 3,3-difluoropropyl (2R,3S,5R)-2-((((1S,3S,6R)-6-(5-fluoropyrimidin-2-yl)bicyclo[4.1.0]heptan-3-yl)oxy)methyl)-5-methyl-3-(methylsulfonamido)pyrrolidine-1-carboxylate], 102%.

The test is the same for the next values; noted with them: percentage of mean max effect of a reference compound at 1 uM (100% activity by comparison to Orexin A), human OX2R.
As to `COC(=O)N1[C@H](C)C[C@H](NS(C)(=O)=O)[C@@H]1COC1CCC2(c3ncccn3)CC2C1` (single isomer, unassigned) [Example 16], the “Emax (%)” value stood at 102.2%.

Source of the values: US11680060B2, “Bicycloheptane pyrrolidine orexin receptor agonists” (Merck Sharp & Dohme LLC, priority 2020, dated 2023).
